From US20070270392A1, “Use of a Cyclopentenone Prostaglandin for Delaying the Onset and/or Preventing the Continuation of Labour” (Imperial College Innovations Limited, priority 2003, published 2007)

Experiments:
COX-2 [1] = test: Western immunoblot of IL-1β-induced COX-2 protein expression in myometrial cells; assay type: cell-based, human; conditions: treated 2 h, IL-1β 6 h
Description: Myometrial tissue was collected at term from the upper margin of uterine incision at the time of lower segment caesarean section either prior to the onset of labour (L−) or […] (L+). L+ samples were collected by Dr Mark Johnson and Dr S Soorrana at Chelsea & Westminster Hospital. Myometrial tissue was dissected, rinsed in PBS, and digested in serum-free DMEM containing 15 mg/ml collagenase 1A (Sigma), 15 mg/ml collagenase X, and 50 mg/ml bovine serum albumin for 45 min at 37° C. The cell suspension was filtered through a cell strainer, centrifuged at 400 g for 5 min, and the pellet re-suspended and plated out in DMEM, 10% FCS (Helena BioScience), 1% L-glutamine, 1% penicillin-streptomycin. Cells were used between passage numbers 1-4.
(§1) Protein samples (20-70 μg) were mixed with Laemmli sample buffer (1:1) containing β-mercaptoethanol (5%), and boiled for 5 min. Proteins were then separated by SDS-PAGE (12-14% gels) and transferred onto PVDF membrane (Amersham Pharmacia Biotech). […] The blots were then incubated with HRP-conjugated secondary antibody (diluted 1:2000 in 1% non-fat milk in PBS-T buffer) for 1 h and washed three times (10 min each) in PBS-T. Signal detection was achieved using enhanced chemi-luminescence (ECL plus system, Amersham Pharmacia Biotech) according to manufacturer's instructions. […]

[2] = tested on: LPS-induced inflammatory responses in placental homogenates; test: Mouse model of preterm labour: placental inflammatory responses after intrauterine LPS ± 15d-PGJ2; assay type: in vivo, mice
Description: Concentrations of IL-1 (in placental homogenates collected from gestation day 16 mice 6 hours after intrauterine injection of 250 μg LPS+vehicle or 250 μg LPS+4 μg 15d-PGJ2. * denotes statistically significant difference (t-test (p<0.05)).
Relative concentrations of phospho-p65 in placental homogenates collected from gestation day 16 mice 6 hours after intrauterine injection of 250 μg LPS+vehicle or 250 μg LPS+4 μg 15d-PGJ2. * denotes statistically significant difference (t-test (p<0.05)).
Surgery was performed on timed pregnant MF1 mice at day 16 of gestation. After deep maternal anaesthesia was attained, a minilaparotomy was performed in the lower abdomen. The uterine horns were exposed through the incision and preterm labour was induced by the intrauterine injection of […] lipopolysaccharide (LPS, Sigma) into the gravid horn. This was immediately followed by injection of 4 μg […] (Cayman), or an equal volume of vehicle (methyl acetate), at the same site. The uterus was then returned to the abdomen and the fascia and skin were closed with continuous vicryl sutures.
Mice were sacrificed 6 hours after injection of LPS±15d-PGJ2. Placentae were washed in phosphate buffered saline (PBS), flash frozen in liquid nitrogen and stored at −80° C. until further processing. Fetuses were washed in PBS, then immediately fixed in 4% paraformaldehyde for 24 h and then stored in 70% ethanol until further processing. Placentae were homogenized for 1 minute in the presence of lysis buffer comprising 400 mM KCl, 20 mM HEPES pH7.4, 1 mM dithiothreitol, 20% glycerol and 5% (v/v) protease inhibitor cocktail.
Homogenate levels of Interleukin-1β (IL-1β) and tumour necrosis factor α (TNFα) were determined in placental lysates by ELISA (R and D systems) according to manufacturers instructions. Total protein concentrations were determined for each homogenate and IL-1β and TNFα levels were expressed as pg/mg total protein. […] Phosphorylated p65 (phospho-p65) was detected by western immunoblotting using a specific antibody (Santa Cruz) and quantified by densitometric analysis.

COX-2 [3] = test: IL-1β-induced COX-2 expression in L− and L+ amnion cells; assay type: cell-based, human
Description: Placentae were obtained from patients at term either at elective Caesarean section prior to labour (L−) or following spontaneous labour onset and vaginal delivery (L+). Amnion cells were prepared as described in Bennett et al., (1989). Briefly, the amnion was separated from the placenta, washed 3× in PBS, cut into strips, and incubated in 0.51 mM EDTA in PBS for 15 min. The strips were washed in PBS 2× and digested with 2.5 mg/ml dispase in serum-free DMEM for 35 min at 37° C. The amnion was then shaken vigorously in DMEM, 10% FCS to dissociate the cells, the remaining strips discarded, and the cell suspension pelleted at 175 g for 10 min and cultured in DMEM, 10% FCS (Sigma), 1% L-glutamine, 1% penicillin-streptomycin.
as §1, with “Biotech). The membranes were blocked overnight in 5% non-fat milk prepared in PBS-T buffer, at 4° C.” for “Biotech).”

[4] = proximal placentae, gestation day 16 mice, 6 hours after intrauterine 250 μg LPS+4 μg 15d-PGJ2, p<0.05

Compound: CCCCCC=CC=C1C(=O)C=C[C@@H]1CC=CCCCC(=O)O [15d-PGJ2, 15-deoxy-Δ^12,14prostaglandin J2]
- IL-1β-induced COX-2 expression (COX-2 [1]): inhibited
- TNFα levels according to drug treatment ([2]; placentae, 6 hours after intrauterine LPS+15d-PGJ2 vs LPS+ vehicle): not significantly altered
- Levels of IL-1β lower than LPS+ vehicle [2, 4]: approximately 40%
- phospho-p65 levels lower than LPS+ vehicle [2, 4]: approximately 35%
- IL-1β-induced COX-2 expression (COX-2 [3]): inhibited
